In the NIST ThermoML archive (doi:10.1016/j.jct.2019.03.008):

Tests used:
[1] = Boiling temperature at pressure P; settings: Liquid, DSC
[2] = Crystal; DTA

Oc1ccccc1O [1,2-benzenediol]
[1]
Settings | Boiling temperature at pressure P [°C]
2.95 kPa | 139.1
3.93 kPa | 145.5
4.93 kPa | 150.7

Oc1cccc(O)c1 [1,3-benzenediol]
[1]
Settings | Boiling temperature at pressure P [°C]
2.95 kPa | 171.6
3.93 kPa | 178.2
4.93 kPa | 183.7

CCCCCCc1ccc(O)cc1O [1,3-dihydroxy-4-hexylbenzene]
Settings | Normal melting temperature [°C]
[2] | 67.0

[1]
Settings | Boiling temperature at pressure P [°C]
1.95 kPa | 201.0
2.95 kPa | 211.0
3.87 kPa | 218.7
5.42 kPa | 227.1
7.89 kPa | 238
9.9 kPa | 244.6
19.83 kPa | 267
29.78 kPa | 281.4
49.68 kPa | 301.2
69.58 kPa | 315.0
79.52 kPa | 321.4
100.93 kPa | 332.4
198.33 kPa | 364.4
223.29 kPa | 371.5
250.21 kPa | 378

CCCc1c(O)cccc1O [2-propylresorcinol]
Settings | Normal melting temperature [°C]
[2] | 104.8

[1]
Settings | Boiling temperature at pressure P [°C]
9.92 kPa | 197.5
19.83 kPa | 218.2
29.79 kPa | 231.6
49.69 kPa | 250.2
69.61 kPa | 263.2
98.91 kPa | 278.0
198.31 kPa | 309.6
299.37 kPa | 332.2
400.46 kPa | 345.8

CCc1ccc(O)cc1O [4-ethylresorcinol]
Settings | Normal melting temperature [°C]
[2] | 97.2

[1]
Settings | Boiling temperature at pressure P [°C]
9.92 kPa | 207.4
19.87 kPa | 228.2
29.79 kPa | 241.4
49.73 kPa | 259.6
69.64 kPa | 272.6
98.43 kPa | 287.0
198.31 kPa | 318.6
299.37 kPa | 339.8
400.09 kPa | 356.2
